Reference: ChEMBL document CHEMBL4834434, “Discovery of Novel and Potent N-Methyl-d-aspartate Receptor Positive Allosteric Modulators with Antidepressant-like Activity in Rodent Models” (J Med Chem, 2021)
Calls of active or inactive are those of the source. The calls are words filed in the database; no cut-off is given here.

Experiments:
[1] = Brain to blood partition coefficient of the compound; format: physicochemical, tissue-based; settings: read-out: logBB (converted)
[2] = target: T1, Glutamate NMDA receptor (Mus musculus) (UniProt P35436+Q91ZU9+Q03391+P35438+Q01097+Q01098+A2AIR5); assay: Positive allosteric modulation of C57BL/6 mouse NMDA receptor assessed as fold change in compound potentiated NMDA-induced current relative to NMDA current alone at 30 uM measured after 15 to 30 mins by patch-clamp method; format: tissue-based; settings: Brain, filed as positive allosteric modulator, time 15-30 min
[3] = target: T1, Glutamate NMDA receptor (Mus musculus); assay: Positive allosteric modulation of C57BL/6 mouse NMDA receptor assessed as potentiation of NMDA-induced current by measuring peak current amplitude at 30 uM measured after 15 to 30 mins by patch-clamp method (reference value: 54.6 +/- 4.6 pA); format: tissue-based; settings: Brain, filed as positive allosteric modulator, time 15-30 min
Mus musculus = assay: Antidepressant activity in icv dosed C57BL/6N mouse assessed as decrease in immobility time measured after 36 mins; format: functional, organism-based

Question: What does the source list for `O=C(Nc1ccc(Cl)cc1C(=O)NCCCCO)c1ccco1`?
Answer: Kp [1]: 0.0776; fold change (FC) [2]: 3.5; Activity [3]: 1320 pA

Question: For `CNCCC(Oc1ccc(C(F)(F)F)cc1)c1ccccc1` (centres undefined), which Activity (Mus musculus) is on record?
Answer: The Activity was “Active”.
